The target of this assay is T1, biotinylated HRP (Armoracia rusticana, UniProt P00433).
T1 construct: purchased Roche Diagnostics, Indianapolis, Ind., USA
T1 sequence (P00433 31-338 limits assumed): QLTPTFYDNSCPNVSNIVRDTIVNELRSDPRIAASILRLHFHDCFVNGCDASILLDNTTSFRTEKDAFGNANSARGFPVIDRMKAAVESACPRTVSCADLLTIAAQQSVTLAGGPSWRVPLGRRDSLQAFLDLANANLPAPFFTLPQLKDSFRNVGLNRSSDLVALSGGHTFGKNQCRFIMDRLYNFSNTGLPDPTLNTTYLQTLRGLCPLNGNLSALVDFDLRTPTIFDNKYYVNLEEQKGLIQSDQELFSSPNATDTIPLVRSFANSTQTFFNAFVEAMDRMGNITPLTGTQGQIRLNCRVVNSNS
As to the kind of experiment: Model system for selection of SSIA (M280 btn-BSA-AK1-streptavidin particles + Btn-HRP:HRP). The assay is classed as biochemical. The following applies: for S/S0: Btn-HRP 0 ng/mL vs 0; for S/S0 / S1/S0 / S2/S0 / S3/S0 / S4/S0 / effect in the model system / utility as SSIA: SSIA 100 μM; for B-HRP0 light intensity: Btn-HRP 0 ng/mL; for B-HRP0 light intensity / B-HRP1 light intensity / B-HRP10 light intensity / B-HRP100 light intensity / B-HRP250 light intensity: total HRP 500 ng/mL, SSIA final 100 μM; for S1/S0: Btn-HRP 1 ng/mL vs 0; for B-HRP1 light intensity: Btn-HRP 1 ng/mL; for S2/S0: Btn-HRP 10 ng/mL vs 0; for B-HRP10 light intensity: Btn-HRP 10 ng/mL; for S3/S0: Btn-HRP 100 ng/mL vs 0; for B-HRP100 light intensity: Btn-HRP 100 ng/mL; for S4/S0: Btn-HRP 250 ng/mL vs 0; for B-HRP250 light intensity: Btn-HRP 250 ng/mL; for effect in the model system / utility as SSIA: conclusion in words. As to the method: The model system uses a microparticle conjugated to BSA (bovine serum albumin) labeled with a […] and acridan ketenedithioacetal chemiluminescent label (AK1) as the chemiluminescent-labeled sbp, and biotinylated HRP as the activator-labeled specific binding pair. In the model system, varying amounts of Btn-HRP is added to the chemiluminescent-labeled specific binding pair at 0, 1, 10, 100 and 250 ng/mL. Additional unlabeled HRP is added to reach a total HRP of concentration of 500 ng/mL in each reaction mixture. The unlabeled HRP in combination with the activator-labeled sbp was provided to the chemiluminescent-labeled sbp microparticles to emulate sample. A compound for assessment as an SSIA was also added. This reaction mixture of the model system is then triggered by addition of trigger solution in a manner of assays of the present disclosure.
To prepare the chemiluminescent-labeled sbp on microparticles, Bovine Serum Albumin (BSA) was biotinylated with 4× molar excess of biotin-LC-sulfoNHS (Pierce Biotechnology Inc., Rockford, Ill., USA). Unbound reactants were removed via desalting or dialysis. The biotin-BSA was then reacted with a 5× molar excess of acridan ketenedithioacetal AK1 in 20 mM sodium phosphate pH 7.2: DMSO 75:25, v/v) followed by desalting in the same buffer. The dual labeled (biotin and AK1) BSA was then coupled with tosyl activated M-280 microparticles (Invitrogen Corporation, Carlsbad, Calif., USA) in a 0.1 M borate buffer pH 9.5 at a concentration of ca. 20 μg labeled BSA per mg of microparticles for 16-24 h at 40° C. After coupling the microparticles were stripped for 1 h at 40° C. with 0.2 M TRIS base, 2% SDS, pH ˜11. The stripping process was repeated one additional time. Microparticles were then suspended in a 0.1% BSA/TRIS buffered saline (BSA/TBS) buffer and streptavidin (SA) was added at approximately 15 μg SA per mg microparticles. Streptavidin was mixed with the microparticles for 45-50 min at room temperature. The microparticles were then washed three times and suspended in the same BSA/TBS.
HRP, (Roche Diagnostics, Indianapolis, Ind., USA) was biotinylated with 4× molar excess of biotin-LC-sulfoNHS (Pierce Biotechnology Inc., Rockford, Ill., USA). Unbound reactants were removed via desalting or dialysis.
Each SSIA compound for assessment was dissolved in Buffer II at a concentration at least 10× of final concentration of the reaction mixture (after the addition of the trigger solution)
Paramagnetic particles (PMP): (M280)-(btn-BSA-AK)-(Streptavidin);
Sample Emulator: B-HRP:HRP; 500 ng/mL total with titration of B-HRP:HRP at Total HRP concentration of 500 ng/mL, with Btn-HRP variations: 0, 1, 10, 100 and 250 ng/mL.
SSIA: According to tables below in BUFFER II targeted to give a final concentration of 100 μM.
Trigger solution A is defined above.
5 μl of 1 mg/ml of dual-labeled (biotin and AK1) BSA M280 particles were mixed with 45 μl of working concentration SSIA in Buffer II. The assay volume brought to […] by adding 15 μl of Buffer II. 15 μl of sample containing Btn-HRP:HRP at different ratios (The amount of biotinylated-HRP varied from 0, 1, 10, 100 and 250 ng/mL) was added. The reaction mixture was incubated for 30 min at 37° C., then 100 μL of trigger solution was added and the light intensity recorded. Total volume of reaction mixture, including trigger solution was […] with a final concentration of 100 μM of SSIA.

In the case of `CC1(C)CC(O)CC(C)(C)N1[O]` [TEMPOL], the S/S0 is recorded as 1, the B-HRP0 light intensity is 22,621, the S1/S0 is reported as 1.5 and the B-HRP1 light intensity is on record as 33,873. Besides, the S2/S0 came to 86.8, the B-HRP10 light intensity is recorded as 1,963,369, the S3/S0 is 407.6 and the B-HRP100 light intensity is on record as 9,220,799. In addition, the S4/S0 came out at 467.6, the B-HRP250 light intensity is on record as 10,578,104 and the “effect in the model system / utility as SSIA” value is recorded as “no effect”.

Consider `N[C@@H](CS)C(=O)O` [Cysteine], for which the S/S0 amounted to 1, the B-HRP0 light intensity is 35,695, the S1/S0 was determined as 1.6 and the B-HRP1 light intensity was 58,203. For the same compound, the S2/S0 came out at 69.6, the B-HRP10 light intensity was 2,483,411, the S3/S0 is listed as 256.3 and the B-HRP100 light intensity is on record as 9,147,371. For the same compound, the S4/S0 is 285.5, the B-HRP250 light intensity is 10,190,505 and the “effect in the model system / utility as SSIA” value was “no effect”.

Regarding `COc1cc(/C=C/C(=O)O)ccc1O` [Ferulic acid], the S/S0 is 1, the B-HRP0 light intensity is listed as 5,252, the S1/S0 came to 2.3 and the B-HRP1 light intensity is listed as 12,079. The S2/S0 stood at 136.2, the B-HRP10 light intensity is 715,313, the S3/S0 was 1672.9 and the B-HRP100 light intensity was 8,785,865. The S4/S0 is on record as 1950.5 and the B-HRP250 light intensity is 10,244,269.

Take `Cl.Nc1ccc(O)cc1O` [4-aminoresorcinol HCl, 4-aminoresorcinol hydrochloride]: the S/S0 is given as 1, the B-HRP0 light intensity came to 675, the S1/S0 was 1.7 and the B-HRP1 light intensity was 1,163. Further, the S2/S0 is reported as 110.8, the B-HRP10 light intensity is recorded as 74,764, the S3/S0 came out at 489 and the B-HRP100 light intensity was 330,056. The S4/S0 was 384.5, the B-HRP250 light intensity is 259,541 and the “effect in the model system / utility as SSIA” value is “demonstrating utility as SSIA”.

On to `Cc1c(C)c2c(c(C)c1O)CCC(C)(C(=O)O)O2` (stereo not shown) [Trolox ®, Trolox], for which the S/S0 was 1, the B-HRP0 light intensity worked out at 173, the S1/S0 came to 8.4 and the B-HRP1 light intensity was 1,460. Besides, the S2/S0 worked out at 215.1, the B-HRP10 light intensity is given as 37,291, the S3/S0 turned out to be 41832.7 and the B-HRP100 light intensity is reported as 7,251,008. For the same compound, the S4/S0 stood at 62274.5, the B-HRP250 light intensity was 10,794,247 and the “effect in the model system / utility as SSIA” value is listed as “demonstrating utility as SSIA”.

As to `COc1cc(C(=O)O)cc(OC)c1O` [Syringic Acid], the S/S0 is recorded as 1, the B-HRP0 light intensity is listed as 14,485, the S1/S0 is reported as 1.6 and the B-HRP1 light intensity is recorded as 23,707. The S2/S0 was found to be 64.8, the B-HRP10 light intensity is listed as 939,372, the S3/S0 is 547.2 and the B-HRP100 light intensity is on record as 7,927,096. The S4/S0 is 658 and the B-HRP250 light intensity is 9,530,979.

Consider `Cc1c(C)c2c(c(C)c1O)CC[C@@](C)(CCC[C@H](C)CCC[C@H](C)CCCC(C)C)O2` (racemic) [(+/−)-alpha-Tocopherol, (±)-a-Tocopherol], for which the S/S0 was 1, the B-HRP0 light intensity is 2,772, the S1/S0 is 2.3 and the B-HRP1 light intensity was 6,468. Also, the S2/S0 is 452.1, the B-HRP10 light intensity is given as 1,253,187, the S3/S0 is listed as 3088.2 and the B-HRP100 light intensity is given as 8,560,469. In addition, the S4/S0 came to 3473.4 and the B-HRP250 light intensity is 9,628,184.

As to `CC(=O)N[C@@H](CS)C(=O)O` [N-Ac-Cysteine, N-acetyl cysteine], the S/S0 is 1, the B-HRP0 light intensity is listed as 43,647, the S1/S0 came out at 1.1 and the B-HRP1 light intensity is recorded as 47,636. In addition, the S2/S0 is on record as 40.3, the B-HRP10 light intensity is recorded as 1,757,607, the S3/S0 is 199 and the B-HRP100 light intensity is given as 8,685,795. For the same compound, the S4/S0 was determined as 234.2, the B-HRP250 light intensity is given as 10,219,869 and the “effect in the model system / utility as SSIA” value is “no effect”.

As for `O=C(O)CCCC[C@@H]1CCSS1` (racemic) [Lipoic Acid], the S/S0 is listed as 1, the B-HRP0 light intensity is reported as 35,016, the S1/S0 is listed as 2 and the B-HRP1 light intensity is 71,751. Further, the S2/S0 is listed as 70, the B-HRP10 light intensity is recorded as 2,450,949, the S3/S0 is on record as 246.9 and the B-HRP100 light intensity was 8,647,037. Further, the S4/S0 is 252.7, the B-HRP250 light intensity was 8,847,921 and the “effect in the model system / utility as SSIA” value was “no effect”.

In the case of `NNC(=O)c1cccnc1` [Nicotinic Hydrazide], the S/S0 is 1, the B-HRP0 light intensity is on record as 42,260, the S1/S0 was 1.4 and the B-HRP1 light intensity was 58,356. The S2/S0 is listed as 49.8, the B-HRP10 light intensity is reported as 2,106,471, the S3/S0 was 194.2 and the B-HRP100 light intensity is recorded as 8,205,320. The S4/S0 is reported as 187.5, the B-HRP250 light intensity was 7,923,092 and the “effect in the model system / utility as SSIA” value is listed as “no effect”.

For `Oc1ccc(Cl)cc1O` [4-chlorocatechol], the S/S0 came to 1, the B-HRP0 light intensity was 93, the S1/S0 came to 2.2 and the B-HRP1 light intensity is 205. Moreover, the S2/S0 was found to be 14.8, the B-HRP10 light intensity is reported as 1,373, the S3/S0 is 4910.8 and the B-HRP100 light intensity is 456,707. Moreover, the S4/S0 was 13558.5, the B-HRP250 light intensity is recorded as 1,260,937 and the “effect in the model system / utility as SSIA” value is “demonstrating utility as SSIA”.

These data come from patent publication US20100273189A1, “NON SEPARATION ASSAYS WITH SELECTIVE SIGNAL INHIBITORS” (BECKMAN COULTER, INC., priority 2009, published 2010).
